Consider 11 molecules from patent US20260055083A1, “APOL1 INHIBITORS AND METHODS OF USE” (Maze Therapeutics, Inc., priority 2022, published 2026).

The target in test [1] is T1, APOL1 G2 (Homo sapiens, UniProt O14791, DEL388-389).
T1 construct: expressed in transfected cells; host or cells: HEK293/T-REx APOL1 G2 clone #2, doxycycline-inducible
T1 sequence (O14791 with tags, fused parts or gaps DEL388-389): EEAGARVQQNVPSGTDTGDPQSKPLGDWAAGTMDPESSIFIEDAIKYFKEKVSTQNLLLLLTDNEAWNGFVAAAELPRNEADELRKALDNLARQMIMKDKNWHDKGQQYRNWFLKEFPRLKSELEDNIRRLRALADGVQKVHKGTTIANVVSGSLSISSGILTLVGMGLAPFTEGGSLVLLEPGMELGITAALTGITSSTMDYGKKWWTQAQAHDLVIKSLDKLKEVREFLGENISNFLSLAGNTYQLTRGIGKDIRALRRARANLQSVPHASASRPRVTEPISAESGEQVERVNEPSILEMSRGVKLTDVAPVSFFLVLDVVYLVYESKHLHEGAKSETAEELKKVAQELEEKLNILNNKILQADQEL
Kind of test: APOL1 G2 HEK293 rescue of cell death caused by overexpression of APOL1 (CellTiter-Glo). The test is classed as cell-based. Conditions: HEK293/T-REx APOL1 G2 clone #2, doxycycline induction, 17 hours, CellTiter-Glo luminescence; reversal of cell death; geometric mean of at least 2 assay runs. The method, then: A HEK293 clonal cell line overexpressing APOL1 G2 (HEK293/T-REx APOL1 G2/clone #2) was maintained in 1×DMEM-GlutaMax (Gibco, 10569-010) media with 10% tetracycline-free FBS (Takara Bio USA, 631101), 5 μg/mL Blasticidin (Gibco, A1113903), and 100 μg/mL Zeocin (Invitrogen, R25001) in T75 flasks. In preparation for the assay, this media was aspirated and 2 mL of prewarmed TrypLE Express (Gibco, 12605-010) was added to a flask to detach cells. The flask was then incubated (humidified, 37° C. with 5% CO2) for 3-5 minutes. Afterwards, 8 mL of prewarmed cell assay media (1×DMEM-GlutaMax media with 10% tetracycline-free FBS) was added to the trypsinized cells. The suspension was gently mixed, and cells were counted using a Countess Cell Counting Chamber (Invitrogen). The suspension was diluted using cell assay media to generate a working stock solution (166,667 cells/mL). Using a MultiDrop Combi (Thermo Electron Corp), 30 μL (final cell density=5,000 cells/well) of the working stock solution was dispensed into each well of white 384-well assay ready plates (Nunc™, 164610) containing 6 ng/mL doxycycline, to induce APOL1 expression, and compound. All compounds were plated in a duplicate 8-point dilution series that consisted of 3-fold stepwise dilutions (0.5% DMSO final). Assay plates were incubated (humidified, 37° C. with 5% CO2) for 17 hours. After the incubation, the plates were equilibrated at room temperature for 1 hour. Next, 15 μl of CellTiter-Glo® reagent (Promega, G7570) was added to each well using a MultiDrop Combi. Plates were placed on an orbital shaker (500 rpm) for 5 minutes to induce cell lysis and then incubated at room temperature for 10 minutes. Luminescence was measured on an Envision plate reader. Collaborative Drug Discovery software was utilized for graphing data. Plots were generated using a four parameter logistic curve fit.
Table B2 below provides the results from this experiment. Unless otherwise specified, EC50 values are reported as the geometric mean of at least 2 assay runs on separate days. Each run represents the average of a technical replicate, where each compound was assayed twice in the same plate. A superscript t symbol indicates a value from the average of a technical replicate from a single assay run, where each compound was assayed twice in the same plate. Compounds in Table B2 are referred to by the corresponding Compound Number in Table 1, which is also referred to in the synthetic examples. When one or more of the numbered compounds are identified by stereochemistry (for example, (R)- or (S)-), the specific stereoisomer for which data is provided in Table B2 may be identified by the elution order of such compound as described in the synthetic examples. To illustrate, Compound 2 is the first-eluting enantiomer of step 4 of Example 1 and Compound 3 is the second-eluting enantiomer of step 4 of Example 1. Further, by way of illustration, Compound 27 is the first-eluting enantiomeric mixture in step 4 of Example 7 and Compound 28 is the second-eluting enantiomeric mixture in step 4 of Example 7. Then, Compound 27 is separated into Compound 29 (the first-eluting enantiomer) and Compound 30 (the second-eluting enantiomer) in Example 8, and Compound 28 is separated into Compound 31 (the first-eluting enantiomer) and Compound 32 (the second-eluting enantiomer) in Example 8. Absolute stereochemistry of such compounds may be identified by methods known in the art.
Rescue EC50 values reported in Table B2 below represent the half-maximal effective concentration for reversal of cell death caused by overexpression of APOL1.
For orientation: In ATP-based viability assays light output follows the ATP content of the culture.

For test [2], the target named is T1, APOL1 G2. Kind of test: APOL1 G2 FLIPR calcium influx assay (HEK T-REx/GCaMP6f/APOL1 G2 K6.3 cells). The test is classed as cell-based. To be noted: HEK293 clone expressing GCaMP6f, doxycycline-induced APOL1 G2; prevention of calcium influx; geometric mean of at least 2 assay runs. The method, then: A HEK293 clonal cell line was generated to stably express GCaMP6f, a genetically encoded calcium indicator, and inducibly express APOL1 G2 (HEK T-REx/GCaMP6f/APOL1 G2 K6.3). Cells were maintained in the following standard complete medium: DMEM with 4.5 g/L glucose and sodium pyruvate (BioWhittaker, Lonza, BE12-614F), supplemented with 10% FBS Performance Plus (Gibco, 16000044), 1% penicillin-streptomycin (BioWhittaker, DE17-602E), 2 mM ultraglutamine-1 (BioWhittaker cat. BE 17-605/U1), 50 μg/mL Zeocin (InvivoGen, ant-zn), 2.5 μg/mL Blasticidin (InvivoGen, ant-bl-5), and 25 μg/mL Hygromycin (InvivoGen, ant-hg). Standard propagation conditions consisted of plating 9×10^6, 4×10^6, 2×10^6 cells in a T225 flasks to be processed after 2, 3, or 4 days, respectively.
A source plate was generated containing 20 serially diluted compounds in DMSO (duplicate 8-point dose response). Next, 0.8 μL of compounds were transferred from the source plate to a destination plate prefilled with 79.2 μL of Ca^2+ free Tyrode's buffer (130 mM NaCl, 5 mM KCl, 1 mM MgCl2, 5 mM NaHCO3, 20 mM HEPES at pH 7.4). The destination plate was placed on a plate shaker (5 seconds at 2000 rpm) to mix. […] All transfer and mixing steps were conducted with an CyBi®-Well dispenser.
Cells were split by gently washing with DPBS (Euroclone, ECB4004L), followed by a 5-minute incubation (humidified, 37° C. with 5% CO2) with trypsin-EDTA solution (Euroclone, ECB3052D). Detached cells were diluted with standard complete medium without selective agents, counted, and plated in a 384 MTP microplate (GR4332CPL, Twin Helix) (10,000 cells/well in 25 μl/well) using a MATRIX WellMate dispenser. Plates were placed into a humidified incubator (37° C. with 5% CO2) overnight. The following day, 20 μL of doxycycline (Sigma, D9891) at 20 ng/mL in standard complete medium was added to cells with a CyBi®Drop dispenser to induce APOL1 G2 expression. After a 6-hour incubation (humidified, 37° C. with 5% CO2), cells were washed 3 times with Ca^2+ free Tyrode's Buffer (130 mM NaCl, 5 mM KCl, 1 mM MgCl2, 5 mM NaHCO3, 20 mM HEPES at pH 7.4) using a BIOTEK Microplate washer, such that 10 μL of buffer remained in each well after the final wash. Assay plates were then stored at room temperature for 10 minutes. Next, 10 μL of diluted compounds were transferred to the assay plate from the 2× compound plate using a CyBi®-Well dispenser. Compound incubation was then carried out at room temperature for 10 minutes. The assay plate was transferred to the […] and 20 μL of 10 mM Ca^2+ (final concentration=5 mM) Tyrode's buffer was injected.
Table B1 below summarizes the data from this experiment. Unless otherwise specified, AC50 and values are reported as the geometric mean of at least 2 assay runs on separate days. Each run represents the average of a technical replicate, where each compound was assayed twice in the same plate. A superscript t symbol indicates a value from the average of a technical replicate from a single assay run, where each compound was assayed twice in the same plate.
The AC50 values in Table B1 below reflect the compound's ability to prevent calcium influx by inhibiting APOL1. […] Compounds in Table B1 are referred to by the corresponding Compound Number in Table 1, which is also referred to in the synthetic examples. When one or more of the numbered compounds are identified by stereochemistry (for example, (R)- or (S)-), the specific stereoisomer for which data is provided in Table B1 may be identified by the elution order of such compound as described in the synthetic examples. To illustrate, Compound 2 is the first-eluting enantiomer of step 4 of Example 1 and Compound 3 is the second-eluting enantiomer of step 4 of Example 1. Further, by way of illustration, Compound 27 is the first-eluting enantiomeric mixture in step 4 of Example 7 and Compound 28 is the second-eluting enantiomeric mixture in step 4 of Example 7. […]

Take `C[C@@H]1C[C@H](COc2ccc(S(=O)(=O)CCO)cc2)CN1C1CCc2ccc(C#N)cc2C1` (single isomer, unassigned) [Compound 60, (7S or 7R)-7-[(2R,4S)-4-{[4-(2-hydroxyethanesulfonyl)phenoxy]methyl}-2-methylpyrrolidin-1-yl]-5,6,7,8-tetrahydronaphthalene-2-carbonitrile]: the EC50 (in general, the concentration giving half of the maximal effect) in test [1] is 37 nM. Also, the AC50 (as a rule, the concentration giving half of the maximal activity seen) in test [2] amounted to 477 nM.

On to `CC(c1ccc(OC[C@@H]2CN(CCc3cccc(Cl)c3)CCN2)cc1)S(C)(=O)=O` (stereo partly drawn) [Compound 140, (3S)-1-[2-(3-chlorophenyl)ethyl]-3-{[4-(1-methanesulfonylethyl)phenoxy]methyl}piperazine], for which the concentration giving a half-maximal response (EC50) in test [1] stood at 756 nM. For the same molecule, the AC50 in test [2] is 379 nM.

`C[C@H]1C[C@H](COc2ccc(S(C)(=O)=O)cc2)CN1CCc1cccc(Cl)c1` [Compound 143, (2S,4S)-1-[2-(3-chlorophenyl)ethyl]-4-[(4-methanesulfonylphenoxy)methyl]-2-methylpyrrolidine]: the 50% effective concentration (EC50) in test [1] amounted to 1200 nM. In test [2], the AC50 came to 936 nM.

For `C[C@@H]1C[C@H](COc2ccc(S(=O)(=O)CCO)cc2)CN1C1CCc2ccc(Cl)cc2C1` (stereo partly drawn) [Compound 61, 2-(4-{[(3S,5R)-1-[7-chloro-1,2,3,4-tetrahydronaphthalen-2-yl]-5-methylpyrrolidin-3-yl]methoxy}benzenesulfonyl)ethan-1-ol], the EC50 in test [1] stood at 63.3 nM. Further, in test [2], the half-maximal activity concentration (AC50) was 698 nM.

As to `CC(Cc1cc(Cl)cc(C#N)c1)N1C[C@@H](COc2ccc(S(C)(=O)=O)cc2)[C@H](C)C1` (stereo partly drawn) [Compound 17, 3-chloro-5-[2-[(3S,4S)-3-[(4-methanesulfonylphenoxy)methyl]-4-methylpyrrolidin-1-yl]propyl]benzonitrile], in test [1], the half-maximal effective concentration (EC50) amounted to 527 nM. The half-maximal activity concentration (AC50) in test [2] was found to be 380 nM.

On to `Cc1c(C#N)cc(Cl)cc1CCN1C[C@@H](CO)[C@H](COc2ccc(S(C)(=O)=O)cc2)C1` [Compound 23, 5-chloro-3-{2-[(3S,4S)-3-(hydroxymethyl)-4-[(4-methanesulfonylphenoxy)methyl]pyrrolidin-1-yl]ethyl}-2-methylbenzonitrile], for which the EC50 in test [1] is 309 nM. Moreover, in test [2], the AC50 is 392 nM.

With `C[C@@H]1CN(CC(O)c2cccc(C#N)c2)C[C@H]1COc1ccc(S(C)(=O)=O)nc1` (single isomer, unassigned) [Compound 106, 3-[(1R or 1S)-1-hydroxy-2-[(3S,4S)-3-{[(6-methanesulfonylpyridin-3-yl)oxy]methyl}-4-methylpyrrolidin-1-yl]ethyl]benzonitrile], the EC50 in test [1] was more than 10000 nM. Besides, in test [2], the AC50 was more than 10000 nM.

As for `CC(C(O)c1cc(Cl)cc(C#N)c1)N1C[C@@H](COc2ccc(S(C)(=O)=O)cc2)[C@H](C)C1` (single isomer, unassigned) [Compound 100, 3-chloro-5-((1R,2S or 1S,2R)-1-hydroxy-2-((3S,4S)-3-methyl-4-((4-(methylsulfonyl)phenoxy)methyl)pyrrolidin-1-yl)propyl)benzonitrile], the concentration for a half-maximal effect (EC50) in test [1] was 948 nM. Also, the concentration at half-maximal activity (AC50) in test [2] came to 575 nM.

On to `Cc1cc(OC[C@@H]2CN(CCc3cc(Cl)cc(C#N)c3)CCN2)ccc1S(C)(=O)=O` [Compound 112, 3-chloro-5-{2-[(3S)-3-[(4-methanesulfonyl-3-methylphenoxy)methyl]piperazin-1-yl]ethyl}benzonitrile], for which, in test [1], the concentration giving a half-maximal response (EC50) stood at 296 nM. Moreover, in test [2], the AC50 came out at 409 nM.

With `CS(=O)(=O)c1ccc(OC[C@@H]2CN(C(CO)Cc3cccc(Cl)c3)CCN2)cc1` (single isomer, unassigned) [Compound 119, (2S or 2R)-3-(3-chlorophenyl)-2-[(3S)-3-[(4-methanesulfonylphenoxy)methyl]piperazin-1-yl]propan-1-ol], the EC50 in test [1] turned out to be 633 nM. Besides, the concentration at half-maximal activity (AC50) in test [2] is 2330 nM.

Take `C[C@@H]1C[C@H](COc2ccc(S(C)(=O)=O)cc2)CN1CC(CO)c1cc(Cl)cc(C#N)c1` (single isomer, unassigned) [Compound 130, 3-chloro-5-[(2S or 2R)-1-hydroxy-3-[(2R,4S)-4-[(4-methanesulfonylphenoxy)methyl]-2-methylpyrrolidin-1-yl]propan-2-yl]benzonitrile]: the EC50 in test [1] amounted to 303 nM. Besides, the concentration at half-maximal activity (AC50) in test [2] amounted to 1940 nM.
